Source: US11136615B2 (PROMEGA CORPORATION, priority 2017, dated 2021)

Assays:
Assay type in all cases: physicochemical
[1] = Thermal stability (T80) of Ultra-Glo™-based ATP detection reagent; details: 37° C.
Procedure: (FIG. 6). T80 (the storage time during which the complete ATP detection reagent produced ≥80% of the light output from the freshly made reagent), a parameter reflecting reagent thermal stability, was improved by 1 fold at 37° C. after addition of ATT. In particular, the T80 value in the absence of ATT (0 mM) was 4 days, whereas the T80 value in the presence of ATT (3 mM) was 8 days (FIG. 6A). Further, the combination of dehydroluciferin and ATT as additives further improved the reagent stability, increasing the T80 value to 18 days (FIG. 6B, at 3 mM ATT with 0.3 mM corresponding dehydro-compound).

[2] = Effect of ATT on luciferin stability (RP-HPLC); details: luciferins 1.0 mM, cationic detergent buffers pH 6.0, ATT 2.0 mM, 60° C., FIG. 3
Procedure: Representative luciferins were reconstituted (at final concentration of 1.0 mM) in buffers containing various cationic detergents at pH 6.0, with or without ATT (Sigma, at a final concentration of 2.0 mM). The mixture was incubated at 60° C. Aliquots (20 μL) were taken out at various time points, diluted with H2O (180 μL), and analyzed by RP-HPLC. The percentages of the components were calculated based on UV absorbance at 330 nm.

[3] = Effect of ATT on pro-luciferin stability with or without TCEP (RP-HPLC); details: 2-hydroxyethyl ester of luciferin methyl ether 1.0 mM, PBS pH 7.4, 5% DMSO, ATT 8.0 mM, TCEP 10 mM, 37° C., FIG. 5
Procedure: ATT was also shown to be compatible with additives that are commonly used in bioluminescence systems. […] The mixture was incubated at 37° C., with or without ATT (Sigma, at a final concentration of 8.0 mM), and with or without TCEP (Thermo Scientific, at a final concentration of 10 mM).

[4] = Effect of ATT on pro-luciferin stability (RP-HPLC); details: 2-hydroxyethyl ester of luciferin methyl ether 1.0 mM, PBS pH 7.4, 5% DMSO, ATT 8.0 mM, 37° C., FIG. 4
Procedure: A stock solution of this compound in DMSO was added to PBS buffer at pH 7.4 to reach a final concentration at 1.0 mM and 5% DMSO. The mixture was incubated at 37° C., with or without ATT (Sigma, at a final concentration of 8.0 mM). Aliquots (20 μL) were taken out at various time points, diluted with H2O (180 μL), and analyzed by RP-HPLC. The percentages of the components were calculated based on UV absorbance at 330 nm.

## Cc1n[nH]c(=S)[nH]c1=O [ATT, 6-methyl-3-thioxo-3,4-dihydro-1,2,4-triazin-5(2H)-one]
[1]; ATT 3 mM in complete ATP detection reagent, 4 days in the absence of ATT, FIG. 6A
  T80 (storage time with ≥80% of the light output of freshly made reagent): 8 days
[1]; complete ATP detection reagent
  improvement of T80 after addition of ATT: 1 fold
[2]
  dehydroluciferin formation: reduced
  luciferin thermal stability: improved
[3]
  stability of the pro-luciferin compound in the presence of TCEP: improved
[4]
  decomposition of the pro-luciferin compound: slowed down
  formation of the corresponding dehydroluciferin derivative: reduced
